{"source": "paper PMC8249445", "about": "“Complex effects of macrolide venturicidins on bacterial F-ATPases likely contribute to their action as antibiotic adjuvants” (Scientific Reports, 2021)", "key": {"[1]": {"molecular_target": "T1, PaFOF1 in membranes from P. aeruginosa strain PAO1 (Pseudomonas aeruginosa, UniProt Q9HT15)", "T1 construct": "endogenous in cells; host or cells: P. aeruginosa strain PAO1, inverted membrane vesicles", "assay": "ATP hydrolysis by P. aeruginosa PAO1 membranes, enzyme-coupled spectrophotometric assay", "format": "biochemical", "settings": "38.5 mM selenite", "procedure": "P. aeruginosa strain PAO1 was grown in LB medium at 37 °C as described. For preparation of IMV, final cultures used 1 L of LB per 2L baffled flask and were inoculated from an overnight culture at an initial OD600 ~ 0.025. Cultures were shaken at 250 rpm and monitored until they reached mid- to late-logarithmic growth phase (OD600, 1–1.4). Cultures were chilled and subsequent steps for cell lysis and isolation of IMV were done at 4 °C. Cells were sedimented by centrifugation (3,700 × g, 30 min). Cells from 1 to 2 L of culture (~ 2–3 g wet cells/L) were resuspended in 25–40 ml of STEM buffer (TEM buffer plus sucrose[55]), transferred to a 50 ml Oak Ridge tube, sedimented again (11,617 × g, 10 min), resuspended in 20–40 ml of STEM and frozen at -80 °C. Thawed cells were lysed by two sequential passages through an SLM-Aminco French pressure cell at ~ 16,000 psi, essentially as described for E. coli[55]; the pressure cell was enclosed in a clear biohazard bag (MiniGrip, IP2024B3T) during use to contain any aerosols formed. Unlysed cells and cell wall debris were removed by centrifugation (50 ml Oak Ridge tubes, 16,743 × g, 25 min): the supernate was diluted with MTGM7.5 buffer (50 mM MOPS-TRIS, 10%(v/v) glycerol, 5 mM Mg(CH3COO)2, pH 7.5) and centrifugation was repeated at least twice, recovering the supernate each time. The final supernatant lysate was stored at -80 °C. To isolate IMV, the cleared lysate was thawed quickly and diluted with MTGM7.5 as needed to fill 1 or 2 polycarbonate tubes for use in a Beckman Ti70 rotor. The IMV (membranes) were sedimented by ultracentrifugation (250,000 × g max) for 1 h, the membranes were resuspended in MTGM7.5 buffer to fill one Ti70 tube and ultracentrifugation was repeated for 45 min. The membranes were resuspended in a small volume of MTGM7.5 buffer (typically ≥ 10 mg membrane protein/ml) and homogenized manually (Potter–Elvehjem type). Small aliquots of the final membrane sample were quick-frozen in liquid nitrogen and stored at − 80 °C.\nATP hydrolysis by membrane vesicles was assayed spectrophotometrically[57] at 30 °C using an open-chamber, diode array spectrophotometer (Hewlett Packard 8453 UV–Vis) as described in[29]. The assay medium (1 ml per assay) contained 20 mM Mops/Tris, pH 8.0, 0.2 mM EDTA, 10 mM CH3COOK, 1 mM ATP, 3.2 mM Mg(CH3COO)2, 1 mM phosphoenolpyruvate, at least 0.3 mM NADH, 0.1 mg/ml pyruvate kinase, 0.1 mg/ml lactate dehydrogenase, 5 mM KCN, and 5 μM carbonyl cyanide 4-(trifluoromethoxy)-phenylhydrazone. As noted before, the rate of ATP hydrolysis by membranes increases to a small degree during assays. This is due, at least in part, to dissociation of a small fraction of EcF1 and/or ε from the membranes, since the increase is inhibited by added ε (e.g., Fig. 5). To avoid interference of this increase with the changes of ATPase activity induced by venturicidins, unless indicated otherwise, measurement of ATPase activities were started 60 min after addition of membranes to the complete assay medium. This minimizes further increases in ATPase rate during control assays to < 15%. To keep absorbance between 1.5 and 2 units after the 60-min preincubation, up to 0.2 mM additional NADH was added to the assay medium. In figures displaying activity traces, some traces are shifted vertically for visual clarity."}, "[2]": {"system": "FOF1 in membranes from P. denitrificans", "parameters": "method as in PMID 10672007", "settings": "cited from earlier work"}, "E. coli": {"system": "E. coli", "parameters": "method as in PMID 32424122", "settings": "complex growth medium; cited from earlier work"}}}
{"smiles": "CCC(=O)C(C)C(O)C(C)CC(C)C1OC(=O)CC2(O)CC=C(C)C(O2)C(C)=CCCCC(OC2CC(OC(N)=O)C(O)C(C)O2)C=CC(C)CC1C", "note": "(stereo not shown) [ventA, venturicidin A]", "values": [{"measurement": "Inhibition of early ATPase rate", "setting": "[1]", "result": "up to 42%"}, {"measurement": "ATPase remaining at saturating ventA", "setting": "[1]; best fit of early rates", "result": "62% (± 2)"}, {"measurement": "ventA-sensitive ATPase", "setting": "[1]; best fit of early rates", "result": "42% (± 3)"}, {"measurement": "Late rate, recovery of activity as % of uninhibited rate", "setting": "[1]; concentration-dependent", "result": "up to 140%"}, {"measurement": "Ki", "setting": "[1]; read-out: Ki (inhibition of early rate)", "result": 1200, "unit": "nM"}, {"measurement": "Sensitivity of ATPase to ventA inhibition, sulfite-activated vs PMF-activated FOF1", "setting": "[2]", "result": "~ threefold"}, {"measurement": "Adjuvant action", "setting": "E. coli", "result": "minimal adjuvant action"}]}
